Laboratory results reported in patent US10927343B2, “Therapeutic apoptotic cell preparations, method for producing same and uses thereof” (ENLIVEX THERAPEUTICS LTD, priority 2012, dated 2021).

Tested on: NLRP3 inflammasome-induced IL-1β release from murine peritoneal macrophages (pMΦ)
Experiment: IL-1β release from primary resident peritoneal macrophages (ELISA)
Format: cell-based, mice
Conditions: LPS + 3% DSS, z-YVAD-fmk 10 μM, K+ 130 mM, bafilomycin A1 10 nM, NAC 20 mM
Procedure: Primary resident peritoneal macrophages (pMΦ) of WT or Nlrp3−/− mice were generated as described elsewhere (Bauer et al. 2010). Briefly, mice were sacrificed under isoflurane anesthesia by cervical dislocation. Peritoneal lavage was then performed by exposing the parietal peritoneum and injecting intraperitoneally with a transpipette 10 ml of 2% FBS in PBS. The peritoneal lavage fluid was centrifuged and re-suspended at the desired concentration. The adherent pMΦ (F 4/80 positive cells) subset consists about 20% of the peritoneal lavage as observed by flow cytometer analysis. Cells were then plated into culture dishes overnight. Cells were washed, and adherent cells were used for cytokine assays. Where indicated, experiments were performed after four weeks of co-housing WT and NLRP3-deficient mice to neutralize the microbiota effect.
pMΦ were seeded into 96-well plates at a density of 2×10^5 cells per well. After LPS priming for 1 h, cells were stimulated with different activators for 24 h. Cell culture supernatant was used for ELISA (Biolegend, San Diego Calif., USA), which was performed according to the manufacturer's protocol.
In order to examine the effect of the apoptotic cell composition on inflammasome-induced IL-1β release, isolated macrophages were exposed to lipopolysaccharide (LPS) and DSS with or without earlier interaction with apoptotic cells for two hours.
Given the need for TLR triggering through NF-κB signaling, and the fact that apoptotic cells can inhibit NF-κB, and therefore inhibit […] secretion in the absence of inflammasome inhibition, a set of experiments was initiated to elucidate whether IL-1β secretion is inhibited both at NF-κB and NLRP3 levels by apoptotic cells. Resident peritoneal macrophages (pMΦ) were either incubated with apoptotic cells, washed, and primed with LPS following stimulation with various inflammasome inducers, or were first primed with LPS, allowing accumulation of de novo […] transcription and then treated with apoptotic cells and inducers.

Row | Molecule | DSS-mediated IL-1β release
1 | CC(=O)N[C@@H](CS)C(=O)O [N-acetyl-L-cysteine] | significantly inhibited
2 | [Cl-].[K+] [KCl] | inhibited
3 | z-YVAD-fmk | almost complete inhibition
4 | CO/C1=C\C(C)=C\[C@@H](C)[C@@H](O)[C@@H](C)C/C(C)=C/C=C/[C@H](OC)[C@@H]([C@@H](C)[C@@H](O)[C@H](C)[C@@]2(O)C[C@@H](O)[C@H](C)[C@@H](C(C)C)O2)OC1=O [bafilomycin, bafilomycin A1] | inhibited
